Results as given in patent US12528767B2, “HDAC6 inhibitors and uses thereof” (Eikonizo Therapeutics, Inc., priority 2019, dated 2026).

Legend:
[1] = target: Human HDAC9 a.a. 604-1066 (Homo sapiens, UniProt Q9UKV0)
Full length Human HDAC1 = Full length Human HDAC1 (Homo sapiens, UniProt Q13547)
Full length Human HDAC11 = target: T1, Full length Human HDAC11 (Homo sapiens, UniProt Q96DB2)
T1 sequence (Q96DB2 1-347): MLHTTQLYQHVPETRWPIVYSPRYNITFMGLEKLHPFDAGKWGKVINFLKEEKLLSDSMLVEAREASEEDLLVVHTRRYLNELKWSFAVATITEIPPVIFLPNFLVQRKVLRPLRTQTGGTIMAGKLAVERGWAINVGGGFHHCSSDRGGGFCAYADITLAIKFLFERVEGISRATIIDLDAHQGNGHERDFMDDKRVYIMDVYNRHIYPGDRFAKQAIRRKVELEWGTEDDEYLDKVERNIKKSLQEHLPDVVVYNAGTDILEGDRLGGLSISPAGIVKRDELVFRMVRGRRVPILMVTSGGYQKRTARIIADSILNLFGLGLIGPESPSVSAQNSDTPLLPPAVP

Full length Human HDAC5 = Full length Human HDAC5 (Homo sapiens, UniProt Q9UQL6)
Sequence of Full length Human HDAC5 (Q9UQL6 whole entry): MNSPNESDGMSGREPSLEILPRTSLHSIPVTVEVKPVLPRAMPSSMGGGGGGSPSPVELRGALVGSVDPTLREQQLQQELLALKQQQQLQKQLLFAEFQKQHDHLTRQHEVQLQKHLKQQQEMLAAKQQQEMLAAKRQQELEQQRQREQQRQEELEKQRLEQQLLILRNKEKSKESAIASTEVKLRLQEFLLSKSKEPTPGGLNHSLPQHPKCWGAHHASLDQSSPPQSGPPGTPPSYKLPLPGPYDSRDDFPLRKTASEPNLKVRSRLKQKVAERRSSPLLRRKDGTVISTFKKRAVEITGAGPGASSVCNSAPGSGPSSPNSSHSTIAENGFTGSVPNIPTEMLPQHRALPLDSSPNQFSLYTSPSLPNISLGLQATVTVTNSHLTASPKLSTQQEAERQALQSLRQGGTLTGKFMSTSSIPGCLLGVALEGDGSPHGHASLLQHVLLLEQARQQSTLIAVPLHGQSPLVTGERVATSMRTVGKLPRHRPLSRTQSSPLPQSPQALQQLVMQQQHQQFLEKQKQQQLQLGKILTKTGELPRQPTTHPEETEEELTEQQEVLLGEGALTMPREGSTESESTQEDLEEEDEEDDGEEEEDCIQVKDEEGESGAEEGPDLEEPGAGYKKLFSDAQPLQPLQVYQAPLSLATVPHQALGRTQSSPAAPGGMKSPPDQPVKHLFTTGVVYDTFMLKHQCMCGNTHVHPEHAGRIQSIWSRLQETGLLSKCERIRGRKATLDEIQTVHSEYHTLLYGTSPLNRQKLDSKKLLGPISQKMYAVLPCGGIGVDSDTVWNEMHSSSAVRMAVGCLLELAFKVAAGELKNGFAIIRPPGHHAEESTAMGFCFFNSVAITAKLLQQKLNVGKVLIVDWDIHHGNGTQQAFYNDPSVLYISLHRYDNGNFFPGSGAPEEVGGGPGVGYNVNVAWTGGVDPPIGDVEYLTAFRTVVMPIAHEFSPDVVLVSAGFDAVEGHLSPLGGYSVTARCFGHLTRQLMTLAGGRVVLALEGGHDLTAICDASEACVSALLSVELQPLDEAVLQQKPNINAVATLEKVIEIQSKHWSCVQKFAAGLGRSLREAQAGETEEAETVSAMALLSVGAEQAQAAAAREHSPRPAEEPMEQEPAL

Full length Human HDAC2 = Full length Human HDAC2 (Homo sapiens, UniProt Q92769)
Sequence of Full length Human HDAC2 (Q92769 whole entry, the tested form may be a part): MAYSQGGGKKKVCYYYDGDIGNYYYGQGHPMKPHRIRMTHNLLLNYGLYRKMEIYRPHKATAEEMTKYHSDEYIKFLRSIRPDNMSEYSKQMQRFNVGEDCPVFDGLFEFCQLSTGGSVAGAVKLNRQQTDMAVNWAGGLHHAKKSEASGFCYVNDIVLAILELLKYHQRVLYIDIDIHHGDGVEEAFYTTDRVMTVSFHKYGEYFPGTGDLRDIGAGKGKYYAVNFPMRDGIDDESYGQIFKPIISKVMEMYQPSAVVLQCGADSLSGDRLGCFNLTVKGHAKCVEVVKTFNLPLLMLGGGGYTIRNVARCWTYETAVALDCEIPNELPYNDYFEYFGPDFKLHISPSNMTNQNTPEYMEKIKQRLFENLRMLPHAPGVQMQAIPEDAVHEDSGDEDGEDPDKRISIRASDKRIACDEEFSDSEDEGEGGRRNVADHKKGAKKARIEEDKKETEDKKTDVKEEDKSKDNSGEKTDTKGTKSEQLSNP

[2] = target: Human HDAC4 aa 101-1084(end) (Homo sapiens, UniProt P56524)
Sequence of Human HDAC4 aa 101-1084(end) (P56524 101-1084): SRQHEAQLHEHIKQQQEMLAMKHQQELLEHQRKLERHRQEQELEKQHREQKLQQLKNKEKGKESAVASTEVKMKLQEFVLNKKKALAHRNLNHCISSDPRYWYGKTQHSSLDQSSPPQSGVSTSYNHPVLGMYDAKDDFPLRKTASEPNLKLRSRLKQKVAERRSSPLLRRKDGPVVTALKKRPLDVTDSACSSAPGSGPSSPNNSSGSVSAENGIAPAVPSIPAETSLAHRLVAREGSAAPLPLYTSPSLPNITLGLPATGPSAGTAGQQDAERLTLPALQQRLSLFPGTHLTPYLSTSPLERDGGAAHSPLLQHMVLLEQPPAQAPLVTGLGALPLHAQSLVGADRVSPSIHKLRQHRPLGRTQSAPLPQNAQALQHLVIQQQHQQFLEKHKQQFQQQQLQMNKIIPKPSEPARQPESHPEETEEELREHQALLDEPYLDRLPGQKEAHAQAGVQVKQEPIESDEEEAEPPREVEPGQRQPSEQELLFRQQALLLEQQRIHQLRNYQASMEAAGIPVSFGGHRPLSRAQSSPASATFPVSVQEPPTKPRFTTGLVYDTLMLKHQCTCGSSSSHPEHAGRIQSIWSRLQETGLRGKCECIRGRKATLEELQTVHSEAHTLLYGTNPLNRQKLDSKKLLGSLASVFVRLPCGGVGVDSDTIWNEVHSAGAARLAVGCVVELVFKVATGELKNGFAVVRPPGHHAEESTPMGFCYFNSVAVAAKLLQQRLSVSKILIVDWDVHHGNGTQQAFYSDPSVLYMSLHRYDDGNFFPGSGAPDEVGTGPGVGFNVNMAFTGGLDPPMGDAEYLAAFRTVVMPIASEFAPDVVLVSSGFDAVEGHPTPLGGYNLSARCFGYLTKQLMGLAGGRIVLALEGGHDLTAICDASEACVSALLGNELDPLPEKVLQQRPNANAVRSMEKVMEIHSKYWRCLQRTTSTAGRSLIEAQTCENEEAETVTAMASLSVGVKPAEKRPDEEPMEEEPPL

[3] = tested on: histone H3 acetylation (acH3K9) in undifferentiated SH-SY5Y cells; assay: Histone H3 acetylation in cells (Western immunoblot); assay type: cell-based; conditions: Homo sapiens, 4 hours, acetyl histone H3K9/histone H3 ratio
Protocol: (§1) Compound EC50 Determination for Tubulin- and Histone H3 Acetylation in Cells
(§2) Estimation of the EC50 for exemplary compounds to alter target protein acetylation in undifferentiated SH-SY5Y cells was performed using standard Western immunoblotting methods. […] SH-SY5Y cells were grown to 90% confluency on sterile cell growth plates. 10 mM compound stocks prepared in DMSO and two-fold serial dilutions were prepared from the stock and applied to cells to achieve a 12-point concentration range in cell media from an upper limit of 10 μM to a lower limit of DMSO [zero compound].
(§3) Cells were incubated under normal growth conditions (37° C., 5% CO2) in the presence of compound for 4 hours, then media was aspirated and cells were rinsed two times with 1×DPBS with calcium and magnesium warmed to 37° C. Cells were frozen directly on the plates on a bed of dry ice for 5 min, then stored at −80° C. until protein extraction.
(§4) Protein extraction was performed in RIPA buffer (50 mM Tris-HCL pH 8.0, 150 mM NaCl, 0.5% sodium deoxycholate, 0.1% sodium dodecyl sulfate, 1% NP-40) supplemented with Pierce protease inhibitor mini tables (Thermofisher cat #A32953) exactly as described by the manufacturer. After thawing the plate on a bed of wet ice for 10 minutes, lysis buffer was added to each well (e.g. 100 μL per well of a 24-well plate) and cells scraped from the bottom of each well. Lysates were then sonicated over ice (40% power, 30 pulses of 1 second on, 2 seconds off), centrifuged at 16,000 g for 10 min at 4° C., and the clarified supernatant saved. Protein concentration was determined by BCA assay and at least 3 μg prepared per lane by combining lysate supernatant aliquot with 1/3 total volume of 3× gel loading buffer containing DTT (NEB Cat. #B7703S), heating for 5 minutes at 95° C., briefly centrifuging and then loading on an SDS-PAGE gel.
(§5) Proteins were resolved on a 4-20% Tris-Glycine gel and transferred to PVDF membrane using an iBlot2 dry transfer system. The membrane was then blocked for at least 30 minutes at room temperature in TBST containing 5% milk or 5% bovine serum albumin, then incubated overnight at 4° C. with a single primary antibody from the following table:
(§6) Following primary antibody incubation, membranes were washed, incubated in secondary antibody, washed and incubated in ECL prime western blotting detection reagent (Amersham #RPN223) with membrane exposure and ECL signal capture in a LI-COR Odyssey Imaging system. […] Subsequent densitometry of immunoreactive bands was performed using the ImageStudio software and Microsoft Excel resulting in the following ratios: acetylTubulin/Tubulin and acetyl histone H3K9/histone H3. Raw ratios were uploaded to GraphPad Prism v7.0 with EC50 values modeled using the variable slope equation for log-transformed data [log(agonist) vs response in Prism].

[4] = tested on: tubulin acetylation (acTubK40) in undifferentiated SH-SY5Y cells; assay: Tubulin acetylation in cells (Western immunoblot); assay type: cell-based; conditions: Homo sapiens, 4 hours, acetylTubulin/Tubulin ratio
Protocol: as §1, §2, §3, §4, §5, §6

Sequence of Human HDAC9 a.a. 604-1066 (Q9UKV0 604-1066 isoform Q9UKV0-5): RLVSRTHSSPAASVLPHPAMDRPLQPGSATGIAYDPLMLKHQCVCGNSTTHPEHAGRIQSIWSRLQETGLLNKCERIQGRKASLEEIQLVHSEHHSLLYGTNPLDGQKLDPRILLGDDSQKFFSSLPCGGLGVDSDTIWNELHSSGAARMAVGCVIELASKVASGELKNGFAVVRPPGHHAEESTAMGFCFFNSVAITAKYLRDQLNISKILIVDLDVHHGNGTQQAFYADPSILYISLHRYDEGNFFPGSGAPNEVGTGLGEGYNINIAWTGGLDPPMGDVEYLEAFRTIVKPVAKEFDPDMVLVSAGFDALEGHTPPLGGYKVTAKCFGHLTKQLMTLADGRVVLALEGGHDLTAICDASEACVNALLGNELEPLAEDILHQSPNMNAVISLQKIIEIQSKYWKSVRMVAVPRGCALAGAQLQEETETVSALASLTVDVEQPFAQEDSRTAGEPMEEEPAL
Sequence of Full length Human HDAC1 (Q13547 whole entry): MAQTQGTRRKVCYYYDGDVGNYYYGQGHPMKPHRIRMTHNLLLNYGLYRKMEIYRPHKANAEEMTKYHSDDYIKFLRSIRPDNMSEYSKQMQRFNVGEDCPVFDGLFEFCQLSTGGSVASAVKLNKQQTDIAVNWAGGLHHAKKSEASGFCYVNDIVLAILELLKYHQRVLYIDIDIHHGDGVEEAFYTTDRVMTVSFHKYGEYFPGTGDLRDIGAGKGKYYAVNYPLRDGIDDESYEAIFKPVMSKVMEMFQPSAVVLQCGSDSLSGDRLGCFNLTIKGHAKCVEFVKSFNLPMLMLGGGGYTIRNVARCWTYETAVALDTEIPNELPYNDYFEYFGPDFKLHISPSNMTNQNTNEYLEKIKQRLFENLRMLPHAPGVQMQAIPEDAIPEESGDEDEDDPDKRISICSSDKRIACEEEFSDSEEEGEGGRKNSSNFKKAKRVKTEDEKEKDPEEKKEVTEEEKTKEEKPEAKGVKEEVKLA

O=C(NO)c1ccc(CN2C[C@H]3CC[C@@H]2CO3)c(F)c1 (single isomer, unassigned) [compound 173]
IC50 [1]: 1 to 10 µM | IC50 (Full length Human HDAC1): 10 to 100 µM | IC50 (Full length Human HDAC11): 10 to 100 µM | IC50 (Full length Human HDAC5): 10 to 100 µM | IC50 (Full length Human HDAC2): 10 to 100 µM | IC50 [2]: 1 to 10 µM

O=C(NO)c1cc(F)c2c(c1)C[C@H]1CCCCN1C2 (single isomer, unassigned) [compound 94]
IC50 [1]: 1 to 10 µM | IC50 (Full length Human HDAC1): > 100 µM | IC50 (Full length Human HDAC11): > 100 µM | IC50 (Full length Human HDAC5): 10 to 100 µM | IC50 (Full length Human HDAC2): > 100 µM | IC50 [2]: 10 to 100 µM

O=C(NO)c1cc(F)c2c(c1)CCN(Cc1ccccc1)C2 [compound 32]
EC50 [3]: > 10 µM | EC50 [4]: 0.3 µM

O=C(NO)c1ccc(CN2C[C@@H]3CC[C@H]2CO3)c(F)c1 (single isomer, unassigned) [compound 172]
IC50 [1]: 10 to 100 µM | IC50 (Full length Human HDAC1): > 100 µM | IC50 (Full length Human HDAC11): 0.001 to 0.1 µM | IC50 (Full length Human HDAC5): 10 to 100 µM | IC50 (Full length Human HDAC2): > 100 µM | IC50 [2]: 10 to 100 µM

O=C(NO)c1ccc(CN2CCC3(CCCCC3)C2)c(F)c1 [compound 75, 4-((2-Azaspiro[4.5]decan-2-yl)methyl)-3-fluoro-N-hydroxybenzamide]
EC50 [3]: > 10 µM | EC50 [4]: 1.4 µM

O=C(NO)c1cc(F)c2c(c1)CCN1CCC[C@@H]21 (single isomer, unassigned) [compound 79]
IC50 [1]: 0.1 to 1 µM | EC50 [3]: > 10 µM | IC50 (Full length Human HDAC1): 1 to 10 µM | IC50 (Full length Human HDAC11): > 100 µM | IC50 (Full length Human HDAC5): 1 to 10 µM | IC50 (Full length Human HDAC2): 10 to 100 µM | IC50 [2]: 1 to 10 µM | EC50 [4]: 0.44 µM

O=C(NO)c1cc(F)c2c(c1)CCN(C1CC3(CCCCC3)C1)C2 [compound 16]
IC50 [1]: > 100 µM | EC50 [3]: > 10 µM | IC50 (Full length Human HDAC1): 10 to 100 µM | IC50 (Full length Human HDAC11): 1 to 10 µM | IC50 (Full length Human HDAC5): > 100 µM | IC50 (Full length Human HDAC2): 10 to 100 µM | IC50 [2]: 10 to 100 µM | EC50 [4]: 2.9 µM

O=C(NO)c1cc(F)c2c(c1)C[C@@H]1CCCCN1C2 (single isomer, unassigned) [compound 93]
IC50 [1]: 1 to 10 µM | IC50 (Full length Human HDAC1): 10 to 100 µM | IC50 (Full length Human HDAC11): 1 to 10 µM | IC50 (Full length Human HDAC5): 1 to 10 µM | IC50 (Full length Human HDAC2): 10 to 100 µM | IC50 [2]: 1 to 10 µM

O=C(NO)c1ccc(CN2CC3CCC(C2)O3)c(F)c1 [compound 53]
IC50 [1]: 0.1 to 1 µM | EC50 [3]: > 10 µM | IC50 (Full length Human HDAC1): 1 to 10 µM | IC50 (Full length Human HDAC11): 10 to 100 µM | IC50 (Full length Human HDAC5): 1 to 10 µM | IC50 (Full length Human HDAC2): 10 to 100 µM | IC50 [2]: 1 to 10 µM | EC50 [4]: 0.2 µM

O=C(NO)c1cc(F)c2c(c1)CCN(CC13CC4CC(CC(C4)C1)C3)C2 [compound 34]
IC50 [1]: 10 to 100 µM | EC50 [3]: > 10 µM | IC50 (Full length Human HDAC1): 10 to 100 µM | IC50 (Full length Human HDAC11): 1 to 10 µM | IC50 (Full length Human HDAC5): 10 to 100 µM | IC50 (Full length Human HDAC2): 10 to 100 µM | IC50 [2]: 10 to 100 µM | EC50 [4]: 2.1 µM

O=C(NO)c1ccc2c(c1)CN1CCCCN1C2 [compound 106, N-hydroxy-1,2,3,4,6,11-hexahydropyridazino[1,2-b]phthalazine-8-carboxamide]
IC50 [1]: 10 to 100 µM | IC50 (Full length Human HDAC1): 10 to 100 µM | IC50 (Full length Human HDAC11): 10 to 100 µM | IC50 (Full length Human HDAC5): > 100 µM | IC50 (Full length Human HDAC2): 10 to 100 µM | IC50 [2]: 10 to 100 µM

O=C(NO)c1ccc(CN2CC3CCC2CO3)c(F)c1 (centres unmarked) [compound 58]
IC50 [1]: 1 to 10 µM | EC50 [3]: 2.5 µM | IC50 (Full length Human HDAC1): 10 to 100 µM | IC50 (Full length Human HDAC11): > 100 µM | IC50 (Full length Human HDAC5): 1 to 10 µM | IC50 (Full length Human HDAC2): 10 to 100 µM | IC50 [2]: 1 to 10 µM | EC50 [4]: 2.6 µM
